Non-standard residues stand in square brackets, D forms with d. Residues, ends and D or L forms follow the SMILES beside them. pGlu = O=C1CC[C@@H](C(=O)O)N1
Legend:
Format in all cases: cell-based
apTKRPR-B = molecular target: T1, apTKRPR-B (Aplysia californica, UniProt A0AAU7STS1); assay: Receptor desensitization assay, protocol 1 (prolonged agonist exposure), apTKRPR-B; conditions: 10 μM, 2, 5, 10, 15, 30 and 60 min at 37 °C; fold increase over basal; n = 3
T1 sequence (A0AAU7STS1 1-447): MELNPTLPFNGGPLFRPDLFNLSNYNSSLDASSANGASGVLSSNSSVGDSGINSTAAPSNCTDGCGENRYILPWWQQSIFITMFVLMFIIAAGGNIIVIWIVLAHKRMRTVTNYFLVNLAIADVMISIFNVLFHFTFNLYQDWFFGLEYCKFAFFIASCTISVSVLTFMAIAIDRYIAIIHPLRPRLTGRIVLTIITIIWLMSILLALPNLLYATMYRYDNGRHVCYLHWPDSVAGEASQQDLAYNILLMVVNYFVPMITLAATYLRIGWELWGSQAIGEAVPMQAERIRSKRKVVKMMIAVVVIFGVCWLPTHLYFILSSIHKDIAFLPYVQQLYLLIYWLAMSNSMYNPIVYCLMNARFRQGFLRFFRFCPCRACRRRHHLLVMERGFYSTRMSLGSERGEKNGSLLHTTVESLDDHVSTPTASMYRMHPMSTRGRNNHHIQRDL
Protocol: Therefore, we adopted two protocols to study the desensitization of apTKRPRs. The protocols were performed using a procedure modified from previous work ([87], [88], [89]).
Protocol 1 ([87], [88]): Under continuous (prolonged) stimulation with an agonist, we examined agonist-induced desensitization by quantifying the rate of IP1 accumulation. Specifically, CHO-K1 cells transiently expressing pcDNA3.1-apTKRPRs were incubated in the absence or presence of 10 μM (saturating concentration) apTKRP-2b for the different duration (2, 5, 10, 15, 30, and 60 min) at 37 °C, and intracellular concentrations of IP1 accumulation were measured. Data are presented as fold increase over basal IP1 concentration (Fig. S10).

apTKRPR-A T376 = apTKRPR-A T376 (Aplysia californica, UniProt A0AAU7SSZ1, DEL377-398); assay: IP1 accumulation assay, C-terminal truncate apTKRPR-A T376
Protocol: To express putative Aplysia receptors transiently in CHO-K1 cells, the cDNAs were subcloned into the pcDNA3.1(+) or pcDNA3.1(+)-FLAG (for ELISA experiments only, see “Cell surface expression analysis by ELISA” section) expression vector. On the day before transfection, the CHO-K1 cells were passaged into 60 mm diameter tissue culture–treated dishes, and the transfection experiments were performed when the cells were grown to 70 to 90% confluence. CHO-K1 cells were transfected with the cDNA plasmid constructs using Turbofect Transfection reagent (Thermo Fisher Scientific, R0531), following the manufacturer’s instructions. In brief, 4 μg of the putative receptor plasmids [in pcDNA3.1(+) or pcDNA3.1(+)-FLAG] were mixed with 400 μl of Opti-MEM (Gibco, 11058021), followed by the addition of 15 μl of TurboFect Transfection reagent and incubated at room temperature for 15 min. […]
The next day, transfected cells were trypsinized and reseeded in an opaque white 96-well half-area (Corning, 3688) or 384-well tissue culture–treated plates (Corning, 3570) at a density of 20,000 cells/well in F-12K and 10% FBS and incubated at 37 °C in a humidified incubator containing 5% CO2 overnight. On the third day, the activation of the putative receptors was detected by monitoring intracellular IP1 concentration using an IP-One Gq kit (Cisbio, 62IPAPEB) in Tecan Spark. […]

apTKRPR-A = molecular target: T2, apTKRPR-A (Aplysia californica, UniProt A0AAU7SSZ1); assay: IP1 accumulation assay, CHO-K1 cells transiently expressing apTKRPR-A
T2 sequence (A0AAU7SSZ1 1-398): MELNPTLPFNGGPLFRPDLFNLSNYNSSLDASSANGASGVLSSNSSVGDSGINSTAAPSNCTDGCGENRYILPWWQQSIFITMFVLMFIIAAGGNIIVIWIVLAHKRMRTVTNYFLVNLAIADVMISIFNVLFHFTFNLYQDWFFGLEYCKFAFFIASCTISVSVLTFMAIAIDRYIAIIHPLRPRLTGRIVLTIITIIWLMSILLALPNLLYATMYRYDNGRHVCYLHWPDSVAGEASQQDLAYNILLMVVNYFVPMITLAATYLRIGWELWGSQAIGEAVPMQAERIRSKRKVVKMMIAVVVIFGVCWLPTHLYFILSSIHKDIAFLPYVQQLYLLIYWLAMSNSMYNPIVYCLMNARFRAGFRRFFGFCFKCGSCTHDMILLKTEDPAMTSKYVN
Protocol: To express putative Aplysia receptors transiently in CHO-K1 cells, the cDNAs were subcloned into the pcDNA3.1(+) or pcDNA3.1(+)-FLAG (for ELISA experiments only, see “Cell surface expression analysis by ELISA” section) expression vector. On the day before transfection, the CHO-K1 cells were passaged into 60 mm diameter tissue culture–treated dishes, and the transfection experiments were performed when the cells were grown to 70 to 90% confluence. CHO-K1 cells were transfected with the cDNA plasmid constructs using Turbofect Transfection reagent (Thermo Fisher Scientific, R0531), following the manufacturer’s instructions. […] The DNA/TurboFect mixture dropwise was then added to the dish, and the cells were incubated at 37 °C in a humidified incubator containing 5% CO2 overnight.
On the third day, the activation of the putative receptors was detected by monitoring intracellular IP1 concentration using an IP-One Gq kit (Cisbio, 62IPAPEB) in Tecan Spark. Except for using 0.5x reagent, all other procedures were performed following the manufacturer’s instructions. IP1 accumulation assay measures the accumulation of IP1, which is hydrolyzed from the second messenger, and inositol triphosphate. Inositol triphosphate is generated by the Gαq pathway when a GPCR is activated by an appropriate ligand.

In the case of `CC(C)C[C@H](NC(=O)[C@H](Cc1c[nH]cn1)NC(=O)[C@@H]1CCCN1C(=O)[C@@H]1CCC(=O)N1)C(=O)NCC(=O)N[C@@H](Cc1ccccc1)C(=O)N[C@@H](Cc1c[nH]cn1)C(=O)NCC(=O)N[C@@H](CO)C(=O)N[C@@H](CCCNC(=N)N)C(N)=O` [apTKRP-2b] ([pGlu]PHLGFHGSR-NH2), the “time course of IP1 accumulation, apTKRPR-B (protocol 1)” value (apTKRPR-B) is reported as “initially increased and then reached a plateau”, the EC50 (apTKRPR-A T376) is reported as 18.2 nM and the EC50 (apTKRPR-A) is reported as 37.2 nM. The “IP1 response of apTKRPR-A in screening” value (apTKRPR-A; 10^-5 M compared with 10^-10 M (control), n = 3, no Gαq cotransfection) was “responded”.
